ChEMBL document CHEMBL5465560, “Selectivity Literature for EUbOPEN Chemogenomic Library” (2024)

Tests used:
[1] = target: Transient receptor potential cation channel subfamily M member 6 (Homo sapiens) (UniProt Q9BX84); assay: Selectivity interaction (KinomeScan (DiscoverX)) EUB0000666a TRPM6; conditions: at 10 µM
[2] = target: Mitogen-activated protein kinase 4 (Homo sapiens) (UniProt P31152); assay: Selectivity interaction (KinomeScan (DiscoverX)) EUB0000229b MAPK4; conditions: at 10 µM
[3] = target: Calcium/calmodulin-dependent protein kinase type 1D (Homo sapiens) (UniProt Q8IU85); assay: Selectivity interaction (Kinase panel (DSF assay)) EUB0001558a CAMK1D
[4] = target: Serine/threonine-protein kinase Nek7 (Homo sapiens) (UniProt Q8TDX7); conditions: at 10 µM
[5] = target: High affinity nerve growth factor receptor (Homo sapiens, UniProt P04629); conditions: at 10 µM
[6] = target: T1, Serine/threonine-protein kinase BRSK1 (Homo sapiens) (UniProt Q8TDC3); assay: Selectivity interaction (Ambit KINOMEscan and KiNATiv profiling in Jurkat cells) EUB0000090b BRSK1; format: cell-based; conditions: at 1 µM
T1 sequence (whole entry): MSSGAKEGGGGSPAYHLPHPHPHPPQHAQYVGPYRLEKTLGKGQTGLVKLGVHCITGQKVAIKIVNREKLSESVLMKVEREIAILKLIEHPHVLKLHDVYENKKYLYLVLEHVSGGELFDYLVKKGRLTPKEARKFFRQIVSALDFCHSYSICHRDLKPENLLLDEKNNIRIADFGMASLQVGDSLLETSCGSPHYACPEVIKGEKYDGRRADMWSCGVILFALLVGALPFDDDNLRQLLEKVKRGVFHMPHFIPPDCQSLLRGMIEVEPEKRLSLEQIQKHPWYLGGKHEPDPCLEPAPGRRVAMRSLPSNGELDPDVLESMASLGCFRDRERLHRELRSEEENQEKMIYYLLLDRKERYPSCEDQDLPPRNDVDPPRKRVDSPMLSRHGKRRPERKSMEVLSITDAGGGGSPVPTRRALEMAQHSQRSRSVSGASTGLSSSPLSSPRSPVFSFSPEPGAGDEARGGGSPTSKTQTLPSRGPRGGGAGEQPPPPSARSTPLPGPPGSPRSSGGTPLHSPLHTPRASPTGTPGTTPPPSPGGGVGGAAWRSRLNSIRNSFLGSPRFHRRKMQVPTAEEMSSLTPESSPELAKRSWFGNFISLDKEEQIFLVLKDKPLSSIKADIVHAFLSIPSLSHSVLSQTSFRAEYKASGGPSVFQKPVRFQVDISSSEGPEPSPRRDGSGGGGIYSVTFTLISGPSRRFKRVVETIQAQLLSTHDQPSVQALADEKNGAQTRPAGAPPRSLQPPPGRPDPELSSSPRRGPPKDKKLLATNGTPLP

[7] = target: T2, Phosphatidylinositol 5-phosphate 4-kinase type-2 gamma (Homo sapiens) (UniProt Q8TBX8); assay: Selectivity interaction (KinomeScan (DiscoverX)) EUB0000045b PIP4K2C
T2 sequence (whole entry): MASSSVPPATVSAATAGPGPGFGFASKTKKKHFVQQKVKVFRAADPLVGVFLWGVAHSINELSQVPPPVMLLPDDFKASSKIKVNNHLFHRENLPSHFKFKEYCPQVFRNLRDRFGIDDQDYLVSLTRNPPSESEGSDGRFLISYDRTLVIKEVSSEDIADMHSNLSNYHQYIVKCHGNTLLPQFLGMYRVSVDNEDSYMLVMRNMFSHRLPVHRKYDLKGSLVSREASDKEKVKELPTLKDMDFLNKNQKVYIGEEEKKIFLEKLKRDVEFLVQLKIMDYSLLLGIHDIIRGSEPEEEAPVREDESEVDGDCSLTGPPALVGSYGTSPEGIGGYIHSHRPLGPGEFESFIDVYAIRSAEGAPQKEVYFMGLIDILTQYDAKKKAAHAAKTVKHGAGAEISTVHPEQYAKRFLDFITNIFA

[8] = target: T3, Serine/threonine-protein kinase D1 (Homo sapiens) (UniProt Q15139); assay: Selectivity interaction (KinomeScan (DiscoverX)) EUB0000655a PRKD1; conditions: at 10 µM
T3 sequence (whole entry): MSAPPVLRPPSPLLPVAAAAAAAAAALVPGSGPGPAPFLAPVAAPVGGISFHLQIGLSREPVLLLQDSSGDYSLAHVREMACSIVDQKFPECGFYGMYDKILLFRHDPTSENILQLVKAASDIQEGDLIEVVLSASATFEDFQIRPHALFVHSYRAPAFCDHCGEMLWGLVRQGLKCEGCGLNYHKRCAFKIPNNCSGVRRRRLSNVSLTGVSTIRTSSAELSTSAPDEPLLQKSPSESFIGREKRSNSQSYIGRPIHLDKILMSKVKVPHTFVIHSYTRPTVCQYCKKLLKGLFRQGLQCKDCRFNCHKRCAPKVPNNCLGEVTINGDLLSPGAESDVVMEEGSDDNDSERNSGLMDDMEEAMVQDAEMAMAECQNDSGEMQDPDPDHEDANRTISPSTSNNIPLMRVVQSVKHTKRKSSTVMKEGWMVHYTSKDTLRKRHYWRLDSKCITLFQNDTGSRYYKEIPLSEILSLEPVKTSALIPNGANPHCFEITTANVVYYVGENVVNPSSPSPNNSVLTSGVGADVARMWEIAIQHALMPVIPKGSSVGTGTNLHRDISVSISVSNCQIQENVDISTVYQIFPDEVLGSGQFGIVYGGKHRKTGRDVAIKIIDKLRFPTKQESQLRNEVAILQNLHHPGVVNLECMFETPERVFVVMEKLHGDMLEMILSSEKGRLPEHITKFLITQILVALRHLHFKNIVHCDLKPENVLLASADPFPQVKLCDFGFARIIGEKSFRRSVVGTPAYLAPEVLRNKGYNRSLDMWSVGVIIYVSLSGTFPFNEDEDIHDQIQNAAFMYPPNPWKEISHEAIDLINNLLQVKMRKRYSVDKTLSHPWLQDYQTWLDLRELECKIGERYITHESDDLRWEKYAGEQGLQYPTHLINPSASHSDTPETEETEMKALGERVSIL

Sequence of Transient receptor potential cation channel subfamily M member 6 (Homo sapiens) (Q9BX84 whole entry): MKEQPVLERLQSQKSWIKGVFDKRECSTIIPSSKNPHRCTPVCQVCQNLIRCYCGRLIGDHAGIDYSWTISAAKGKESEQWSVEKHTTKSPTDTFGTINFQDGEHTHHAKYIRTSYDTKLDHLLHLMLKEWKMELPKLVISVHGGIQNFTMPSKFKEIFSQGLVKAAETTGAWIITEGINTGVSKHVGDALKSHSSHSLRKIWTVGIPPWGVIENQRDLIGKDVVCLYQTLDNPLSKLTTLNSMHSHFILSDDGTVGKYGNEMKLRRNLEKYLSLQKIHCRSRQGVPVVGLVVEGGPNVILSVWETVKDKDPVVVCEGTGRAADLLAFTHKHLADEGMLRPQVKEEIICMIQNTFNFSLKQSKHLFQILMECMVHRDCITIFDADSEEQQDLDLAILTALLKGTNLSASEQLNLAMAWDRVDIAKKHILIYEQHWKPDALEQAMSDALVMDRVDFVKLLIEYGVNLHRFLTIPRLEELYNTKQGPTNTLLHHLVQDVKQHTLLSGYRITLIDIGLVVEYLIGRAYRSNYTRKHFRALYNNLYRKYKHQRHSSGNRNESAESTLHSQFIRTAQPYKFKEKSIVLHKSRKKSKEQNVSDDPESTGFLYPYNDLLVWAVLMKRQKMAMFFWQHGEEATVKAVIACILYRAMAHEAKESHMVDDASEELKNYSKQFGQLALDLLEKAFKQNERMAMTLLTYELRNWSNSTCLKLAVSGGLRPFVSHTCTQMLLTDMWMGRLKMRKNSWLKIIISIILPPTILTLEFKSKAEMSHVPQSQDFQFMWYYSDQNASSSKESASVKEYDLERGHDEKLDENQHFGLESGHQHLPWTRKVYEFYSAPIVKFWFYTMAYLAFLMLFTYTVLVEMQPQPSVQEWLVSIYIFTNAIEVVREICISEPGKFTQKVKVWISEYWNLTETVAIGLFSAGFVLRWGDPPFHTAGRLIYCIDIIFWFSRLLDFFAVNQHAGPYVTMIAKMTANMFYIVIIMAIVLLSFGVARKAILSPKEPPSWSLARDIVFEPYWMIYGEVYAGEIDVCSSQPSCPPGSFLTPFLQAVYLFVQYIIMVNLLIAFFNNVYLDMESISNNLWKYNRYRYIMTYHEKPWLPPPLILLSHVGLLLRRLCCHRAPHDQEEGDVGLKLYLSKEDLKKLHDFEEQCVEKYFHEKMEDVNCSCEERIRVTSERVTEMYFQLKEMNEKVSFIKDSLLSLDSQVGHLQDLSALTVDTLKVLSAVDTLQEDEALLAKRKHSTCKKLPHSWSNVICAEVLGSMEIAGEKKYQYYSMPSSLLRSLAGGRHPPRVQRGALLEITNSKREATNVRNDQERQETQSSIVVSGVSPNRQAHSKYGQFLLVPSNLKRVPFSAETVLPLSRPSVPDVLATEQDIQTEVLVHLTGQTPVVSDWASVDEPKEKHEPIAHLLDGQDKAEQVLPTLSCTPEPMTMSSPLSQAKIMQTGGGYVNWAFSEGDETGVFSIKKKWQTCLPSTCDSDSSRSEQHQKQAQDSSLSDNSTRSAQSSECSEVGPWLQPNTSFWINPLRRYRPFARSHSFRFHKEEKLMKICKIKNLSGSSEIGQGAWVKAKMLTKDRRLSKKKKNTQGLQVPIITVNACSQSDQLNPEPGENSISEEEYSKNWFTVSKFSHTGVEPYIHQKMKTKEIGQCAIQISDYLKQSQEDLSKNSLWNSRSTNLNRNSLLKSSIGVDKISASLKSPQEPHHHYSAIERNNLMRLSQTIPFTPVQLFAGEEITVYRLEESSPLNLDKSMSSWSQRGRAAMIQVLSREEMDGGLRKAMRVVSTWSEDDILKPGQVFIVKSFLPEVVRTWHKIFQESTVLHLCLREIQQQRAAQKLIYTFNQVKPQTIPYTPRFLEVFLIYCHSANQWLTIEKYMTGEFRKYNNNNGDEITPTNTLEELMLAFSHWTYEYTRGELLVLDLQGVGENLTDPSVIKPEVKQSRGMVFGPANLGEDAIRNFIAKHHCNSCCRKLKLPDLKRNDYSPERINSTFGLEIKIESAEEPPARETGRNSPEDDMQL
Sequence of Mitogen-activated protein kinase 4 (Homo sapiens) (P31152 whole entry): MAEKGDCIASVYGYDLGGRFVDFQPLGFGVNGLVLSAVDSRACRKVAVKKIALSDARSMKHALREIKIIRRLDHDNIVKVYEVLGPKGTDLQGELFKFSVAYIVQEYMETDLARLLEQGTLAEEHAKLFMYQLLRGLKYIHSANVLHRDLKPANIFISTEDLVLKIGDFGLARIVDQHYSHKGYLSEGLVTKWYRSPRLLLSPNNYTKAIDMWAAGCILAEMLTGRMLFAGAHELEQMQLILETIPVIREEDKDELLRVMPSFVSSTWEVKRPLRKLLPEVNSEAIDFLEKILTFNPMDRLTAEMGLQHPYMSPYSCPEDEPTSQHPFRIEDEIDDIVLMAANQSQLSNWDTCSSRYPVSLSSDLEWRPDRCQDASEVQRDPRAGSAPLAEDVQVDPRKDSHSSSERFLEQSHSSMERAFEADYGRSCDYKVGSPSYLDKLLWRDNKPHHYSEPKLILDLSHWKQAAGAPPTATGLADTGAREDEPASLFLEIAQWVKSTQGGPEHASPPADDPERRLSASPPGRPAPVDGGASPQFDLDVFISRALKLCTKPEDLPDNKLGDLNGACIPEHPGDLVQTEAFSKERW
Sequence of Serine/threonine-protein kinase Nek7 (Homo sapiens) (Q8TDX7 whole entry, looked up): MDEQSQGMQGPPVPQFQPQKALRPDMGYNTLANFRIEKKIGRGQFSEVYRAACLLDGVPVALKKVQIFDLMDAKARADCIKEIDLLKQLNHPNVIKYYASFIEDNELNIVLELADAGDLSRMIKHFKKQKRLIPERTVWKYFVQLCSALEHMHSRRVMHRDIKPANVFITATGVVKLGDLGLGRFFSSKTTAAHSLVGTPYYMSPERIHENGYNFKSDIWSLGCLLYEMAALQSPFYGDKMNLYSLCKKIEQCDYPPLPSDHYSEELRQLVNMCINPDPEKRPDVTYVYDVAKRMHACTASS
Sequence of High affinity nerve growth factor receptor (P04629 33-796 limits assumed): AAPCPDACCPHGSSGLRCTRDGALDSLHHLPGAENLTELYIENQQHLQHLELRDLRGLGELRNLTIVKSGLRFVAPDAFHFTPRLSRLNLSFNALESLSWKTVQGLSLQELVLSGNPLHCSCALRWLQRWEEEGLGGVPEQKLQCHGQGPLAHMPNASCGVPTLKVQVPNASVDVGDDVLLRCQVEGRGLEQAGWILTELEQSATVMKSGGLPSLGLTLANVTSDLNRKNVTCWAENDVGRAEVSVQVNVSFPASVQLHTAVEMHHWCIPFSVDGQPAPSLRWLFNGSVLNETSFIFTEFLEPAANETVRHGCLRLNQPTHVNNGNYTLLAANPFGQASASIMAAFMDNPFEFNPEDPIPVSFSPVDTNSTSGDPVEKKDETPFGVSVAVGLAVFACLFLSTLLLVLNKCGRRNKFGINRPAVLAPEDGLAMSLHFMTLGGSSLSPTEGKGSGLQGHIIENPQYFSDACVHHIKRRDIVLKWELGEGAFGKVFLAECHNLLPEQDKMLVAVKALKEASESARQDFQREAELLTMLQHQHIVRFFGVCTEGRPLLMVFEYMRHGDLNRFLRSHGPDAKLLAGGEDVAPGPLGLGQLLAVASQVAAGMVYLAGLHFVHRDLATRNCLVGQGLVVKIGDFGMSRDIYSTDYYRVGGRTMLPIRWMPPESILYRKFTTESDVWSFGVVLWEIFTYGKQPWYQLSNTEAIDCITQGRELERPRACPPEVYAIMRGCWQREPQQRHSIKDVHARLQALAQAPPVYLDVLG
Sequence of Calcium/calmodulin-dependent protein kinase type 1D (Homo sapiens) (Q8IU85 whole entry, looked up): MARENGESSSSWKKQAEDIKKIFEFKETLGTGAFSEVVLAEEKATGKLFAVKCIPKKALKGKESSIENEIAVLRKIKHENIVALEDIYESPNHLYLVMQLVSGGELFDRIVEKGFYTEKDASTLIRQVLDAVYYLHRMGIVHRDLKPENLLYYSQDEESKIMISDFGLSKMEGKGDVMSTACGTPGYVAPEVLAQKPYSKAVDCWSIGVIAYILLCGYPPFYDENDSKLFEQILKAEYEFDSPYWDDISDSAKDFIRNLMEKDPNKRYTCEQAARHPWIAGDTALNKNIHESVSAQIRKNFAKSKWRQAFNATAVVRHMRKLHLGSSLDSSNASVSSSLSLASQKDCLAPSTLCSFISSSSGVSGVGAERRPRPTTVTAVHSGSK

For `O=C(NOC[C@H](O)CO)c1ccc(F)c(F)c1Nc1ccc(I)cc1F`, the % of control [1] was 100%.
`COc1cc(N(C)c2ccnc3ccc(C(F)(F)F)cc23)cc(OC)c1OC` gave a % binding [2] of 93%.
In the case of `CC(C)(O)[C@H](F)CN1Cc2cc(NC(=O)c3cnn4cccnc34)c(N3CCOCC3)cc2C1=O`, the dTM [3] is reported as -0.1 K.
`CCN(CC)CCCCNc1ncc2cc(-c3cc(OC)cc(OC)c3)c(NC(=O)NC(C)(C)C)nc2n1` was tested, and the % of control [4] was 100% and the % of control [5] was 100%.
For `CN(C)C/C=C/C(=O)Nc1ccc(C(=O)N2CCCC(Nc3ncc(Cl)c(-c4c[nH]c5ccccc45)n3)C2)cc1` (centres undefined), the % of control [6] was 84%.
Work on `C=CC(=O)Nc1cc(-n2c(=O)ccc3cnc4ccc(-c5ccc(NS(C)(=O)=O)cc5)cc4c32)ccc1C` yielded a % of control ([7]; at 1 µM) of 5.6% and a % of control ([7]; at 10 µM) of 3.9%.
`CN(C)CCOc1ccc(-c2nc(-c3ccncc3)c(-c3ccc4c(c3)CC/C4=N\O)[nH]2)cc1` gave a % of control [8] of 3.8%.
